Activity data for 29 molecules are collected here from patent US8877747B2, “Indenone derivative and pharmaceutical composition comprising same” (Korea Research Institute of Chemical Technology, priority 2009, dated 2014).

The structures appear in SMILES notation.

The test deals with MC3T3-E1 cells. Description: ALP activity, differentiation of osteoblast cells. It counts as cell-based. The settings on record: Mus musculus, MC3T3-E1, 144 h; MC3T3E1 cells treated with 10 μM compound and OF; relates activity to OF-only group (100%); higher = more efficacious. On the procedure:
To examine the effects of the inventive indenone derivatives on the differentiation and activation of osteoblast cells, the activity and expression of alkaline phosphatase (ALP), a marker for the differentiation of osteoblast cells, and the bone nodule formation using a mouse derived osteoblast-like cells, MC3T3-E1 (ATCC, Japan) or a primary mouse calvaria derived preosteoblastic cells were observed.
MC3T3-E 1 cells were seeded in a medium containing osteogenic factors (OF) such as ascorbic acids and β-glycerophosphates (b-GP), and each compound of Examples was added thereto at a concentration of 0.1, 1 and 10 μM. The cells were incubated for 6 days (MC3T3-E1 cells) or 7 days (primary mouse calvaria derived preosteoblastic cells) in a 37° C. CO2 incubator. Then, the culture medium was replaced with a fresh medium together with the test compound every two or three days. On the last day, the medium was centrifuged to remove the supernatant, and the cells were washed with PBS. The washed cells were subjected to a 3-cycle freege-thaw treatment using a −70° C. deep freezer to allow enzymes elute in a lysis buffer. The lysed protein was quantified, followed by measurement of ALP activity using 4-nitrophenylphosphate.
Further, a group treated only with DMSO or OF was tested for ALP activities for comparison.

Turning to `COc1ccc(C2=C(c3ccccc3)c3ccc(OCCN4CCOCC4)cc3C2=O)cc1F` [Example 2, 6-(2-morpholinoethoxy)-2-(3-fluoro-4-methoxyphenyl)-3-phenyl-1H-inden-1-one], the activity at 10 µM turned out to be 221%. For `O=C1C(c2cnc3ccccc3c2)=C(c2ccccc2)c2ccc(OCCN3CCOCC3)cc21` [Example 3, 6-(2-morpholinoethoxy)-3-phenyl-2-(quinolin-3-yl)-1H-inden-1-one] the value was 216%. `NC(=O)c1ccc(C2=C(c3ccccc3)c3ccc(OCCN4CCOCC4)cc3C2=O)cc1` [Example 4, 4-(6-(2-morpholinoethoxy)-1-oxo-3-phenyl-1H-inden-2-yl)benzamide]: the activity at 10 µM is 128%. Then `N#Cc1cccc(C2=C(c3ccccc3)c3ccc(OCCN4CCOCC4)cc3C2=O)c1` [Example 5, 3-(6-(2-morpholinoethoxy)-1-oxo-3-phenyl-1H-inden-2-yl)benzonitrile], with 44%; and `COc1ccc(C2=C(c3ccccc3)c3ccc(OCCN4CCOCC4)cc3C2=O)cn1` [Example 6, 6-(2-morpholinoethoxy)-2-(6-methoxypyridin-3-yl)-3-phenyl-1H-inden-1-one], with 63%; and `O=C1C(c2ccc(F)nc2)=C(c2ccccc2)c2ccc(OCCN3CCOCC3)cc21` [Example 9, 6-(2-morpholinoethoxy)-2-(6-fluoropyridin-3-yl)-3-phenyl-1H-inden-1-one], with 87%. For `O=C1C(c2ccc(-c3ccccc3)cc2)=C(c2ccccc2)c2ccc(OCCN3CCOCC3)cc21` [Example 10, 6-(2-morpholinoethoxy)-2-(4-(phenyl)phenyl)-3-phenyl-1H-inden-1-one] the value was 172%. Then `Cc1ccc(C2=C(c3ccccc3)c3ccc(OCCN4CCOCC4)cc3C2=O)cc1` [Example 11, 6-(2-morpholinoethoxy)-3-phenyl-2-p-tolyl-1H-inden-1-one], with 649%.

Turning to `N#Cc1ccccc1C1=C(c2ccccc2)c2ccc(OCCN3CCOCC3)cc2C1=O` [Example 12, 2-(6-(2-morpholinoethoxy)-1-oxo-3-phenyl-1H-inden-2-yl)benzonitrile], the activity at 10 µM came out at 365%.

Regarding `O=C1C(c2ccc(C(F)(F)F)cc2)=C(c2ccccc2)c2ccc(OCCN3CCOCC3)cc21` [Example 13, 6-(2-morpholinoethoxy)-2-(4-(trifluoromethyl)phenyl)-3-phenyl-1H-inden-1-one], the activity at 10 µM is 151%.

Turning to `CC(=O)Nc1cccc(C2=C(c3ccccc3)c3ccc(OCCN4CCOCC4)cc3C2=O)c1` [Example 14, N-(3-(6-(2-morpholinoethoxy)-1-oxo-3-phenyl-1H-inden-2-yl)phenyl)acetamide], the activity at 10 µM came to 131%. Then `O=C1C(c2cncc3ccccc23)=C(c2ccccc2)c2ccc(OCCN3CCOCC3)cc21` [Example 15, 6-(2-morpholinoethoxy)-2-(isoquinolin-4-yl)-3-phenyl-1H-inden-1-one], with 65%; and `O=C1C(c2ccc3ccccc3c2)=C(c2ccccc2)c2ccc(OCCN3CCOCC3)cc21` [Example 16, 6-(2-morpholinoethoxy)-2-(naphthalen-3-yl)-3-phenyl-1H-inden-1-one], with 713%; and `O=C1C(c2ccc(F)cc2)=C(c2ccccc2)c2ccc(OCCN3CCOCC3)cc21` [Example 17, 6-(2-morpholinoethoxy)-2-(4-fluorophenyl)-3-phenyl-1H-inden-1-one], with 236%. Regarding `O=C1C(c2ccc(F)c(F)c2)=C(c2ccccc2)c2ccc(OCCN3CCOCC3)cc21` [Example 18, 6-(2-morpholinoethoxy)-2-(3,4-difluorophenyl)-3-phenyl-1H-inden-1-one], the activity at 10 µM is 349%.

As to `Cc1ccc(C2=C(c3ccccc3)c3ccc(OCCN4CCOCC4)cc3C2=O)cc1F` [Example 19, 6-(2-morpholinoethoxy)-2-(3-fluoro-4-methylphenyl)-3-phenyl-1H-inden-1-one], the activity at 10 µM is 220%.

Take `Nc1cccc(C2=C(c3ccccc3)c3ccc(OCCN4CCOCC4)cc3C2=O)c1` [Example 20, 6-(2-morpholinoethoxy)-2-(3-aminophenyl)-3-phenyl-1H-inden-1-one]: the activity at 10 µM worked out at 283%. With `O=C1C(c2ccc(Oc3ccccc3)cc2)=C(c2ccccc2)c2ccc(OCCN3CCOCC3)cc21` [Example 21, 6-(2-morpholinoethoxy)-2-(4-phenoxyphenyl)-3-phenyl-1H-inden-1-one], the activity at 10 µM amounted to 130%.

With `COc1ccc(C2=C(c3ccccc3)c3ccc(OCCN4CCOCC4)cc3C2=O)cc1` [Example 22, 6-(2-morpholinoethoxy)-2-(4-methoxyphenyl)-3-phenyl-1H-inden-1-one], the activity at 10 µM is 169%.

Take `O=C1C(c2ccc(Cl)cc2)=C(c2ccccc2)c2ccc(OCCN3CCOCC3)cc21` [Example 23, 6-(2-morpholinoethoxy)-2-(4-chlorophenyl)-3-phenyl-1H-inden-1-one]: the activity at 10 µM is 162%. As to `O=C1C(c2cccnc2)=C(c2ccc(F)cc2)c2ccc(OCCN3CCOCC3)cc21` [Example 24, 6-(2-morpholinoethoxy)-3-(4-fluorophenyl)-2-(pyridin-3-yl)-1H-inden-1-one], the activity at 10 µM was 121%.

As for `O=C1C(c2cncnc2)=C(c2ccc(F)cc2)c2ccc(OCCN3CCOCC3)cc21` [Example 25, 6-(2-morpholinoethoxy)-3-(4-fluorophenyl)-2-(pyrimidin-5-yl)-1H-inden-1-one], the activity at 10 µM came out at 105%. On to `O=C1C(c2ccc(F)c(F)c2)=C(c2ccc(F)cc2)c2ccc(OCCN3CCOCC3)cc21` [Example 26, 6-(2-morpholinoethoxy)-2-(3,4-difluorophenyl)-3-(4-fluorophenyl)-1H-inden-1-one], for which the activity at 10 µM is 79%.

Take `O=C1C(c2ccc(C(F)(F)F)cc2)=C(c2ccc(F)cc2)c2ccc(OCCN3CCOCC3)cc21` [Example 27, 6-(2-morpholinoethoxy)-2-(4-(trifluoromethyl)phenyl)-3-(4-fluorophenyl)-1H-inden-1-one]: the activity at 10 µM was 75%.

As to `O=C1C(c2cccnc2)=C(c2ccc(Cl)cc2)c2ccc(OCCN3CCOCC3)cc21` [Example 28, 6-(2-morpholinoethoxy)-3-(4-chlorophenyl)-2-(pyridin-3-yl)-1H-inden-1-one], the activity at 10 µM stood at 134%.

Take `O=C1C(c2ccc(F)c(F)c2)=C(c2ccc(Cl)cc2)c2ccc(OCCN3CCOCC3)cc21` [Example 29, 6-(2-morpholinoethoxy)-3-(4-chlorophenyl)-2-(3,4-difluorophenyl)-1H-inden-1-one]: the activity at 10 µM is 84%.

On to `O=C1C(c2cncnc2)=C(c2ccc(Cl)cc2)c2ccc(OCCN3CCOCC3)cc21` [Example 30, 6-(2-morpholinoethoxy)-3-(4-chlorophenyl)-2-(pyrimidin-5-yl)-1H-inden-1-one], for which the activity at 10 µM amounted to 150%.

Turning to `O=C1C(c2ccc(C(F)(F)F)cc2)=C(c2ccc(C(F)(F)F)cc2)c2ccc(OCCN3CCOCC3)cc21` [Example 33, 6-(2-morpholinoethoxy)-2,3-bis(4-(trifluoromethyl)phenyl)-1H-inden-1-one], the activity at 10 µM worked out at 65%. Then `O=C1C(c2ccc(F)c(F)c2)=C(c2ccc(C(F)(F)F)cc2)c2ccc(OCCN3CCOCC3)cc21` [Example 34, 6-(2-morpholinoethoxy)-3-(4-(trifluoromethyl)phenyl)-2-(3,4-difluorophenyl)-1H-inden-1-one], with 78%.
